Measured values reported in US11590087B2, “Cannabidiol-type cannabinoid compound” (GW Research Limited, priority 2019, dated 2023).

How the values were obtained:
[1] = system: tonic hind limb extensor convulsions; assay: Maximal electroshock seizure threshold (MEST) test in the mouse; conditions: for % change from vehicle (CC50) / CC50 ± SEM: mouse
Description: The efficacy of 6-OH CBDV was tested in a mouse model of generalised seizure, the maximal electroshock seizure threshold (MEST) test.
The maximal electroshock seizure threshold (MEST) test is widely utilized preclinically to evaluate pro- or anti-convulsant properties of test compounds (Loscher et al., 1991).
In the MEST test the ability of a drug to alter the seizure threshold current required to induce hind limb tonic extensor convulsions is measured according to an “up and down” method of shock titration (Kimball et al., 1957). An increase in seizure threshold is indicative of anti-convulsant effect.
The ability of a test compound to alter the stimulus intensity, expressed as current (mA), required to induce the presence of tonic hind limb extensor convulsions, is assessed in the MEST.
Naïve mice were acclimatised to the procedure room in their home cages for up to 7 days, with food and water available ad libitum.
All animals were weighed at the beginning of the study and randomly assigned to treatment groups based on a mean distribution of body weight across groups.
The first animal within a treatment group was given a shock at the expected or estimated CC50 current. For subsequent animals, the current was lowered or raised depending on the convulsions outcome from the preceding animal.
Data generated from each treatment group were used to calculate the CC50±SEM values for the treatment group.
Vehicle: (5% ethanol, 5% solutol, 90% Saline) was prepared as follows: 2 mL of ethanol, 2 mL of solutol were warmed to 60° C., in 36 mL of saline (1:1:18).
The test compound, alpha 6-OH CBDV was prepared according to the method described in Example 1. 6-OH CBDV was administered at 3, 10 and 30 mg/kg (i.p.) in a 1:1:18 ethanol:soluto:0.9% saline formulation.
6-OH CBDV effects were also calculated as percentage change in CC50 from the vehicle control group.
Significant difference between drug-treated animals and controls were assessed according to Litchfield and Wilcoxon (1949).

[2] = system: tonic hind limb extensor seizure; assay: Supramaximal electroshock seizure (MES) test in the mouse; format: in vivo
Text: The supramaximal electroshock seizure ([…]) test is widely utilized preclinically to evaluate anti-convulsant properties of molecules and standard anti-epileptic drugs (Loscher et al., 1991).
The MES test is a very stringent model in which mice receive a predetermined high-level electrical stimulus of sufficient intensity to reliably produce tonic hindlimb extensor seizures in 100% of control animals. As such the MES test is a rigorous evaluation of anticonvulsant activity (Swinyard, 1985).
Animals were dosed i.p. according to treatment group.
The vehicle (10 ml/kg i.p. 60 min pre-treatment time) was 1:1:18 vehicle 5% ethanol, 5% kolliphor EL, 90% saline.
The test compound, 6-OH CBDV was administered at doses of 3, 10, 30, and 100 mg/kg given at 10 ml/kg i.p. 60 min pre-treatment time.
The positive control valproate was used at 250 mg/kg (10 ml/kg i.p. 30 min pre-treatment time).
Induction of seizure is measured as an all-or-nothing effect scored as either present (+) or absent (0) for each animal.
Data was collected by an observer unaware of the treatment for each animal and was expressed as the number of +'s or 0's for each treatment group.
The percentage inhibition of relevant vehicle treated group (the protection relative to vehicle treated controls) was then generated.
Significant differences between individual treatment groups and vehicle-treated groups were assessed using 2-tailed Fisher's Exact Probability test (p<0.05 considered significant).

[3] = 250 mg/kg i.p., 30 min pre-treatment
[4] = 3 mg/kg i.p., 15 min pre-treatment
[5] = 10 mg/kg i.p., 15 min pre-treatment
[6] = 30 mg/kg i.p., 30 min pre-treatment

SMILES: CN1C(=O)CN=C(c2ccccc2)c2cc(Cl)ccc21 [Diazepam, diazepam, reference compound]
- % change from vehicle (CC50) ([1]; 2.5 mg/kg i.p., 30 min pre-treatment): 124%

SMILES: CCCC(CCC)C(=O)[O-].[Na+] [Valproate, sodium valproate, reference compound]
- % change from vehicle [2, 3]: 100%
- Induction of seizure (present/absent) ([2]; 250 mg/kg i.p., 30 minutes before the test): all animals were scored as not having a seizure
- % change from vehicle (CC50) [1, 3]: 997%

SMILES: C=C(C)[C@@H]1CC(O)C(C)=C[C@H]1c1c(O)cc(CCC)cc1O (stereo partly drawn) [6-OH CBDV, Alpha 6-hydroxy cannabidivarin]
- % change from vehicle ([2]; 3 mg/kg i.p., 60 min pre-treatment): 20%
- % change from vehicle ([2]; 10 mg/kg i.p., 60 min pre-treatment): 20%
- % change from vehicle ([2]; 30 mg/kg i.p., 60 min pre-treatment): 100%
- Induction of seizure (present/absent) ([2]; 30 mg/kg i.p., 60 minutes before the test): enabled all mice to withstand seizures
- % change from vehicle ([2]; 100 mg/kg i.p., 60 min pre-treatment): 100%
- Induction of seizure (present/absent) ([2]; 100 mg/kg i.p., 60 minutes before the test): enabled all mice to withstand seizures
- % change from vehicle (CC50) [1, 4]: 111%
- CC50 ± SEM [1, 4]: 54.2 ± 1.4 mA
- % change from vehicle (CC50) [1, 5]: 147%
- CC50 ± SEM [1, 5]: 63.5 ± 3.4 mA
- % change from vehicle (CC50) [1, 6]: 260%
- CC50 ± SEM [1, 6]: 92.5 ± 0.4 mA
- Effect on MEST (seizure threshold) across doses ([1]; mouse, 3, 10 and 30 mg/kg i.p.): dose-related increase in MEST
